PMC3373380 (BMC Pharmacology, 2012)

Key:
cynomolgus monkey DPP9 = cynomolgus monkey DPP9 (Macaca fascicularis, UniProt A0A2K5TQ54); assay: Steady-state inhibition of isolated cloned DPP9 at 37°C (gly-pro-pNA); assay type: biochemical; conditions: mean ± SD (n)
Procedure: (§1) All solutions were preheated to 37°C.
(§2) DPP8 and DPP9 were tested under identical conditions.

plasma DPP activity [1] = assay: Cynomolgus monkey ex vivo plasma DPP inhibition, ala-pro-AFC assay; assay type: in vivo; conditions: cynomolgus monkeys, single oral doses, 24 hours post dose
Procedure: (§3) Male and female cynomolgus monkeys (Charles River BRF, Houston, TX), were housed in an AAALAC-accredited facility (on a 12-hour light/dark cycle) in stainless-steel cages. They had access to purified tap water ad libitum and were fed Harlan Diet 2050 C (Certified 20% protein primate diet). […]. Doses were administered once weekly using a crossover design such that no monkeys received the same dose twice. For the ex vivo cynomolgus monkey assays, blood samples (approximately 0.5 ml) were collected prior to dosing and 1, 2, 4, 6, 8, and 24 hours post dosing in tubes containing K2EDTA. Tubes were inverted several times to ensure mixing, and placed on ice. Samples were centrifuged at 5000 rpm for 10 minutes at 4°C for plasma isolation. Plasma was stored at -20°C until analyzed for DPP activity. No difference in DPP inhibition was noted between males and females and so data were combined for analyses.
(§4) This procedure produced a 3-fold dilution of plasma.

cynomolgus monkey DPP8 = cynomolgus monkey DPP8 (Macaca fascicularis, UniProt A0A2K5VHB7); assay: Steady-state inhibition of isolated cloned DPP8 at 37°C (gly-pro-pNA); assay type: biochemical; conditions: mean ± SD (n)
Procedure: as §1, §2

[2] = biological target: cynomolgus monkey plasma DPP activity (Macaca fascicularis, UniProt A0A2K5VXJ1); assay: Ala-pro-AFC plasma DPP inhibition assay in vitro; assay type: biochemical
Description: as §4

plasma DPP activity [3] = assay: Cynomolgus monkey ex vivo plasma DPP inhibition, gly-pro-pNA assay; assay type: in vivo; conditions: cynomolgus monkeys, single oral doses, 24 hours post dose, same samples
Procedure: as §3
This assay was reported by Merck as used in their clinical trials, using gly-pro-pNA as substrate. […] Activity, the rate of release of free pNA from the pseudo-substrate, was assayed at 30°C, using a Spectramax 340 plate reader ([…]) with rate determining software. Absorbance at 390 nm was measured. Results were expressed as arbitrary units because standard pNA curves were not run for all experiments. The extent of DPP inhibition and IC50 values were calculated as described above.

human DPP8 = biological target: T1, human DPP8 (Homo sapiens, UniProt Q6V1X1); assay: Steady-state inhibition of isolated cloned DPP8 at 37°C (gly-pro-pNA); assay type: biochemical
T1 construct: made in house
Procedure: (§5) All solutions were preheated to 37°C. Inhibitors were preincubated with enzyme for 40 minutes prior to assay initiation. […] Softmax Pro software from Molecular Devices (Sunnyvale, CA) was used to obtain the initial slope of the reaction in each well, and the fits were inspected to insure that the reactions were linear to a correlation coefficient of 0.99. An Excel template with XLFit (IDBS, Guildford, U.K.) was used for determination of the IC50 for inhibition at each substrate concentration. […] Therefore, IC50 was then converted to Ki assuming competitive inhibition according to:
(§6) The calculated Ki values for competitive inhibition at each substrate concentration were averaged and reported. DPP8 and DPP9 were tested under identical conditions. The in vitro assays were also used to determine substrate Km, by varying substrate concentration across an appropriate range. Km was calculated using GraFit software (Erithacus, Surrey U.K.)

human DPP9 = biological target: T2, human DPP9 (Homo sapiens, UniProt Q86TI2); assay: Steady-state inhibition of isolated cloned DPP9 at 37°C (gly-pro-pNA); assay type: biochemical
T2 construct: made in house
Procedure: as §5, §6

cynomolgus monkey DPP4 = biological target: T3, cynomolgus monkey DPP4 (UniProt A0A075TEP6); assay: Steady-state inhibition of isolated cloned DPP4 at 37°C (gly-pro-pNA); assay type: biochemical; conditions: mean ± SD (n)
T3 construct: made in house
Procedure: as §1, §2

[4] = human, 37°C, gly-pro-pNA, mean ± SD (n)

Sequence of cynomolgus monkey DPP9 (A0A2K5TQ54 156-951): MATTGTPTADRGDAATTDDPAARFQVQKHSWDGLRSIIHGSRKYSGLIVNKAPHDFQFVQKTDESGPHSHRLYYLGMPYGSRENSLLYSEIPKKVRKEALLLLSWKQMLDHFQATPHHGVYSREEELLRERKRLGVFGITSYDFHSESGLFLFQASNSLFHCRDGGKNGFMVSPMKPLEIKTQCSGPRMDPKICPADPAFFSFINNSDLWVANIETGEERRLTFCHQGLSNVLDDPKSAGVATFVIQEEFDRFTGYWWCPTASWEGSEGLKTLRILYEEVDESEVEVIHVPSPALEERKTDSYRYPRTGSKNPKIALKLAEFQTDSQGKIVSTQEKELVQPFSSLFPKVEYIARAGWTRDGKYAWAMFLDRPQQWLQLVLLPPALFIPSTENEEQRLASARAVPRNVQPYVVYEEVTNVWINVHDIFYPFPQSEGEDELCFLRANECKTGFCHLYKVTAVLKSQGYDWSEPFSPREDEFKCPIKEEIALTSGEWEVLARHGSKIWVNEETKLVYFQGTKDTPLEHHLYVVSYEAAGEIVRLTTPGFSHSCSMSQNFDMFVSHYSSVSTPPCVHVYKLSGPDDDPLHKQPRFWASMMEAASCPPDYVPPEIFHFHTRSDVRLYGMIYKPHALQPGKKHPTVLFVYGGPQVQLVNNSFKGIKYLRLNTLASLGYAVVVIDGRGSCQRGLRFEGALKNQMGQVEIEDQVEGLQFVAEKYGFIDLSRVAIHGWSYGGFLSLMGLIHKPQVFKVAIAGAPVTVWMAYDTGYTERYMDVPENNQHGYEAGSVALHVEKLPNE
Sequence of cynomolgus monkey DPP8 (A0A2K5VHB7 1-898): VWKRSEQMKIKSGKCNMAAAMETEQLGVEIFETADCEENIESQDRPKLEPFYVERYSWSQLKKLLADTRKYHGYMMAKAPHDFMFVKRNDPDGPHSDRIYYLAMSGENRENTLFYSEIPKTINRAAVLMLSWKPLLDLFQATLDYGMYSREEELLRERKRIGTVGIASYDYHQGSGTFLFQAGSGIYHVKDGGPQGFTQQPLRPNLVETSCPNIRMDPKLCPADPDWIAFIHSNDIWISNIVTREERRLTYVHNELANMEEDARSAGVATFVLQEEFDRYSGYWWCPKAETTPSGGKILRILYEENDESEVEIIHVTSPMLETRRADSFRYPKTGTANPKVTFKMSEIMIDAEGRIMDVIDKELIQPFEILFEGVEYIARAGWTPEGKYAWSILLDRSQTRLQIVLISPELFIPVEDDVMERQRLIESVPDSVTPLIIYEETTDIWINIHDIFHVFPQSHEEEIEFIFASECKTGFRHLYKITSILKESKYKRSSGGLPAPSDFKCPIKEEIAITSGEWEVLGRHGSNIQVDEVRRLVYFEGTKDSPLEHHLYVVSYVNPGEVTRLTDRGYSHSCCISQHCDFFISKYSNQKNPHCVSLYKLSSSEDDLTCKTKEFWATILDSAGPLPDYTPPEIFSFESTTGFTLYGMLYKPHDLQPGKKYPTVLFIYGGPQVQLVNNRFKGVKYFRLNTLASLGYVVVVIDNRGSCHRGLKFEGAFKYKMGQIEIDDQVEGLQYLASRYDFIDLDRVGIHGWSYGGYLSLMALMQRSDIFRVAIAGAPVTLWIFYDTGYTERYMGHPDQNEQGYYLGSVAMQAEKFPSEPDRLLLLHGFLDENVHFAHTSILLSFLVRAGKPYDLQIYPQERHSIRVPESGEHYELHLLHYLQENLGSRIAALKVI
T2 sequence (Q86TI2 whole entry): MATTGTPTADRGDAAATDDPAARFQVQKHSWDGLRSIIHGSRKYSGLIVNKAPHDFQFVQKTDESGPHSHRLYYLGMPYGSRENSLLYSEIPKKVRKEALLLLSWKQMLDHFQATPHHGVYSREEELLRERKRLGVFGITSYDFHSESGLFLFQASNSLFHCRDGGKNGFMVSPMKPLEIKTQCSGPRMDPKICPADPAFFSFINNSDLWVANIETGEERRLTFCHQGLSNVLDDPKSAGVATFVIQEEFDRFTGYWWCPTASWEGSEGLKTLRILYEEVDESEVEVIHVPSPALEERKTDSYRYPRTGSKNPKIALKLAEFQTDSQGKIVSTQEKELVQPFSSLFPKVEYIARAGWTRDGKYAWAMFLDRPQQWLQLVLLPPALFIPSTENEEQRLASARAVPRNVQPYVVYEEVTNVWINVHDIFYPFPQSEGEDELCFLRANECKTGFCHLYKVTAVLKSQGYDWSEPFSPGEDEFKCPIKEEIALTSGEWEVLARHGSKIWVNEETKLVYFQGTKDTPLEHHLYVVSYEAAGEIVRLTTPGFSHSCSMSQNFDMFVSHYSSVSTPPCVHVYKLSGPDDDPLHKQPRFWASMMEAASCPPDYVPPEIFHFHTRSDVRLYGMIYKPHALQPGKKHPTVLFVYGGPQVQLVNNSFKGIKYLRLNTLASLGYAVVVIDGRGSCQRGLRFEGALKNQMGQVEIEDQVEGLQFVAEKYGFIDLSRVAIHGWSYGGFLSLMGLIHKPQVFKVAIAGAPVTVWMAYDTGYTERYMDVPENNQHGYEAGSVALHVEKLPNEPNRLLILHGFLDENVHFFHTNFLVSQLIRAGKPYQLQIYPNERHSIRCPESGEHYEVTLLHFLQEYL
T1 sequence (Q6V1X1 whole entry): as the sequence (A0A2K5VHB7 1-898) above, with V1M, M357I, S605P, L609P, D823N counted along it
Sequence of cynomolgus monkey plasma DPP activity (A0A2K5VXJ1 39-766): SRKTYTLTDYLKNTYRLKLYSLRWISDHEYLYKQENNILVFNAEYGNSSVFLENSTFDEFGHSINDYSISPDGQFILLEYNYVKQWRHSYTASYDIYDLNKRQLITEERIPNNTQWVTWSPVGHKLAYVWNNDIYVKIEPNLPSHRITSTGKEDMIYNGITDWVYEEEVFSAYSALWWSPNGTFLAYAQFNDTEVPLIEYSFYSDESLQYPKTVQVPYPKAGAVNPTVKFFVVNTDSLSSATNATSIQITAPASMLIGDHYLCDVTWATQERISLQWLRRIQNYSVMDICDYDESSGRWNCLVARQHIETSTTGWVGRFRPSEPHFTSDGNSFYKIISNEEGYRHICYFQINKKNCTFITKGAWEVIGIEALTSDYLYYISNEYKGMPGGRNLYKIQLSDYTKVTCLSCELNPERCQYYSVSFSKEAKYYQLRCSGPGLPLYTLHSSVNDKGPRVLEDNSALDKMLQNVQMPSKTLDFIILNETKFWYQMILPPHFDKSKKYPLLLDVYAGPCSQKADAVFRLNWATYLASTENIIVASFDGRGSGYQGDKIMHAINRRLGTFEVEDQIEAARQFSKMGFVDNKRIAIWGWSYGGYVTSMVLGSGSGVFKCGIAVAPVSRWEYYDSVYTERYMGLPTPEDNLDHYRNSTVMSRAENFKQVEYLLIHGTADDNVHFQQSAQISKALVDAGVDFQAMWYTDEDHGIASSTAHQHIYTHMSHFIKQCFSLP
T3 sequence (A0A075TEP6 1-766): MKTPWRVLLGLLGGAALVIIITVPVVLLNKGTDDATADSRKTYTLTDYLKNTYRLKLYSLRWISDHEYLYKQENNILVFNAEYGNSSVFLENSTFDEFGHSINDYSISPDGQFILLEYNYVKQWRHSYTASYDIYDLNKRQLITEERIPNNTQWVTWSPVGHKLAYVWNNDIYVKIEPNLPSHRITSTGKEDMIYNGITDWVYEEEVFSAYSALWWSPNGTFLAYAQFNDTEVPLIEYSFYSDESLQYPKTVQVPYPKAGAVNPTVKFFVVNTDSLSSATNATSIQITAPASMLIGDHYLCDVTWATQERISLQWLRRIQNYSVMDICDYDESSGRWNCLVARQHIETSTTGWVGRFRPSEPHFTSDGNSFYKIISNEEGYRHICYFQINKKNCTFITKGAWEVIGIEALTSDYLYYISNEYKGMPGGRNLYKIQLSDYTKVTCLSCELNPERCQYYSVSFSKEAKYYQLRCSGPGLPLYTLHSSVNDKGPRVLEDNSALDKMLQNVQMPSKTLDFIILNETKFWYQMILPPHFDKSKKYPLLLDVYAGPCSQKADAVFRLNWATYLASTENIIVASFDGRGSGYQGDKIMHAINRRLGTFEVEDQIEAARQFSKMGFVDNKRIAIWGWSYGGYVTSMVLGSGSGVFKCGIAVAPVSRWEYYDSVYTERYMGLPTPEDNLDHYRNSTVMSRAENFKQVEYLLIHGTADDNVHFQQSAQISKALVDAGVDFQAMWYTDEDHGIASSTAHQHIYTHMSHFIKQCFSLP

Row | Compound | Ki (cynomolgus monkey DPP9) | plasma DPP inhibition ex vivo (plasma DPP activity [1]) | Ki (cynomolgus monkey DPP8) | increase of IC50 in the ala-pro-AFC assay compared to the gly-pro-pNA assay [2] | plasma DPP inhibition ex vivo (plasma DPP activity [3]) | slow binding kinetics to DPP8 (human DPP8) | Ki (human DPP8; [4]) | slow binding kinetics to DPP9 (human DPP9) | Ki (human DPP9; [4]) | Ki (cynomolgus monkey DPP4)
1 | N#C[C@@H]1CCCN1C(=O)CNC12CC3CC(CC(O)(C3)C1)C2 [Vildagliptin, reference compound] | 125 ± 39 nM |  |  |  |  |  |  |  |  | 
2 | N[C@@H](CC(=O)N1CCn2c(nnc2C(F)(F)F)C1)Cc1cc(F)c(F)cc1F [Sitagliptin, reference compound] | 65800 ± 7970 nM | no effect on plasma DPP activity at any of the doses | 21900 ± 17500 nM | 26 fold | statistically significant inhibition of plasma DPP activity at 3, 10 and 40 mg/kg doses |  |  |  |  | 
3 | N#C[C@@H]1C[C@@H]2C[C@@H]2N1C(=O)[C@@H](N)C12CC3CC(O)(CC(O)(C3)C1)C2 [5-hydroxysaxagliptin] | 323 ± 60 nM |  | 2060 ± 658 nM |  |  | Neither saxagliptin nor 5-hydroxysaxagliptin exhibited slow binding kinetics | 2500 ± 727 nM | Neither saxagliptin nor 5-hydroxysaxagliptin exhibited slow binding kinetics | 423 ± 64 nM | 2.9 ± 1.1 nM
4 | N#C[C@@H]1C[C@@H]2C[C@@H]2N1C(=O)[C@@H](N)C12CC3CC(CC(O)(C3)C1)C2 [Saxagliptin, (1 S,3 S,5 S)-2-[(2 S)-2-Amino-2-(3-hydroxytricyclo[3.3.1.1^3,7]dec-1-yl)acetyl]-2-azabicyclo[3.1.0]hexane-3-carbonitrile, monohydrate] | 61 ± 5 nM | close to maximal inhibition of the inhibitable plasma DPP activity at its highest doses | 390 ± 82 nM |  |  |  |  |  |  | 
